{"source": "patent US20060047171A1", "about": "“Catalytic hydrogenation of nitriles to produce capsaicinoid derivatives and amine compounds, and methods for purifying and obtaining the polymorphs thereof” (priority 2003, published 2006)", "key": {"[1]": {"tested_on": "tail flick response to radiant heat", "conditions": "cited from earlier work; for Inhibition (%): mice"}, "[2]": {"tested_on": "yeast induced hyperalgesia", "assay": "Randall-Selitto test", "assay_type": "in vivo, rat", "conditions": "rats, pain threshold of yeast-injected foot", "method": "Randall-Selitto Test was carried out by following the method described in Arch. Int.\nMale albino rats (120-170 g) of the Charles River Sprague-Dawley strain are used. Inflammation is produced by the injection of 0.1 mL of a 20% suspension of Brewer's yeast into the plantar surface of the rat's hind foot.\nThe pain threshold is measured as the pressure in mm Hg required to induce the desired response (a sharp audible squeak and/or struggle) when the pressure is applied to the foot. Air pressure from an air line is admitted through a needle valve to a 20 mL glass syringe and to a pressure gauge connected by a T-tube. The syringe is mounted with the plunger downward to which is connected a short bullet-shaped Teflon peg. The pressure is applied to the foot of the rat at the rate of 10 mmHg per second. Drug is given 2 hours after the yeast injection. Two hours after the drug administration, threshold response is determined.\nThe analgesic activity was determined in terms of the percentage of inhibition of response: Inhibition (%)=(TTG−TCG)/TCG×100, where TTG is the Threshold of Treated Group, and TCG is the Threshold of the Control Group."}, "[3]": {"assay": "Qualitative solubility of DA-5018 in common solvents", "assay_type": "physicochemical", "method": "In order to show which solvents or solvent/antisolvent combinations are appropriate for crystallization studies, the solubility of DA-5018 in twelve solvents was qualitatively evaluated on a 500 mg-scale. In these experiments, DA-5018 was suspended in 5 volumes of the appropriate solvent and stirred at ambient temperature, then incrementally heated until a complete solubilization was achieved."}, "[4]": {"assay": "Solubility curve / metastable zone width in methanol/water (1:1.25, v/v)", "assay_type": "physicochemical", "method": "A standard procedure to determine the width of the metastable zone was used to determine the solubility curves of DA-5018 in methanol/water (1:1.25, v/v). In this procedure, DA-5018 (2.0 g) was suspended in 15 mL (7.5 vol) of methanol/water (1:1.25, v/v) and heated until all solids were dissolved (approximately 55° C.). The resulting solution was then very slowly cooled at a fixed rate of 0.2° C./min and the nucleation temperature recorded. The mixture was slowly reheated and the temperature of complete dissolution recorded. The solution was then iteratively diluted with a known volume of solvent and the nucleation as well as the dissolution points recorded at gradually lower concentrations to provide additional data points on the saturation curve as well as on the solubility curve. By definition, for a given concentration, the distance between the solubility curve and the saturation curve provides the metastable zone width (MSZW), in which crystal growth can be achieved upon careful seeding and controlled cooling, antisolvent addition, evaporation or pH adjustment, depending on the chosen crystallization conditions. Such a protocol is often crucial in maximizing crystal growth and curbing spontaneous, secondary nucleation that leads to uncontrolled crystallization."}, "[5]": {"assay": "Hygroscopicity by dynamic vapor sorption (DVS)", "assay_type": "physicochemical", "conditions": "for hygroscopicity (in words): DVS, conditions up to 90% RH", "method": "Dynamic vapor sorption analysis (DVS) was at times performed on the sample “as is”. Samples were placed in sample pan and underwent a 2-hour drying in a dry nitrogen stream. The samples were then analyzed under the following conditions:\nIsothermal Sequence: • Adsorption: 10-90% RH; step size 10% • Desorption: 85-0% RH; step size 10%\nEach RH point was obtained after the weight loss curve reached an asymptote. After the isotherm was complete, the sample was heated to 80° C. until the weight loss curve reached an asymptote or for 4 hours maximum.\nHygroscopicity studies were conducted by DVS on both the original Form I (FIG. 4) and the thermally converted Form II (FIG. 5) of DA-5018. […] In an attempt to further evaluate the physical form of the dihydrate, a second sample of DA-5018 was converted to the dihydrate by exposing the material to 85% RH overnight in the DVS instrument."}, "[6]": {"assay": "Thermal stress experiments (DSC and XRPD), interconversion of forms", "assay_type": "physicochemical", "method": "To further evaluate these observations, DSC thermograms were obtained for select compounds at various ramping rates to evaluate interconversion of forms, as shown in FIGS. 2(a)-2(c) and 3(a)-3(c). FIGS. 2(a)-2(c) show the conversion of Form I to Form II. The conversion is most readily observed in FIG. 2(a), as conversion was more difficult to observe at the faster ramp rates. […] Additionally, isothermal heating experiments were performed with evaluation by DSC and XRPD to confirm any change of form, as shown in FIGS. 2(d)-2(f) and 3(d)-(f) and Table 3. FIGS. 2(e) and 3(e) show the original XRPD for Forms I and IV, respectively, while FIGS. 2(f) and 3(f) show the XRPD of Form II, formed after thermal conversion."}, "[7]": {"tested_on": "adjuvant induced hyperalgesia", "conditions": "5 mg/Kg; rats; DA-5018 perorally two hours before tail-pinch testing; cited from earlier work"}}, "note": "Entries after “also recorded” stand apart in the source; their conditions may differ. Where two headings read alike, the source gives them in different places.", "data": [{"molecule": "3-(3,4-Dimethylphenyl)acrylonitrile [Example 1]", "values": [{"measurement": "Inhibition (%)", "setting": "[1]; 0.5 mg/Kg s. c.", "value": 50, "unit": "%"}, {"measurement": "Inhibition (%)", "setting": "[1]; 1.0 mg/Kg s. c.", "value": 70, "unit": "%"}]}, {"molecule": "CC(=O)Oc1ccccc1C(=O)O", "note": "[Aspirin]", "values": [{"measurement": "Inhibition (%)", "setting": "[1]; 100 mg/Kg p. o.", "value": 0, "unit": "%"}, {"measurement": "Inhibition (%)", "setting": "[2]; 100 mg/Kg s. c.", "value": 80.1, "unit": "%"}]}, {"molecule": "COc1cc(CNC(=O)CCCC/C=C/C(C)C)ccc1O", "note": "[Capsaicin, trans-8-methyl-N-vanillyl-6-nonenamide]", "values": [{"measurement": "Inhibition (%)", "setting": "[1]; 25 mg/Kg, route not given", "value": 90, "unit": "%"}]}, {"molecule": "COc1cc(CC(=O)NCCCc2ccc(C)c(C)c2)ccc1OCCN", "note": "[DA-5018, 2-[4-(2-aminoethoxy)-3-methoxyphenyl]-N-[3-(3,4-dimethylphenyl)propyl]acetamide]", "values": [{"measurement": "solubility (in words)", "setting": "[3]; MEK, MIBK, EtOAc, IPAc and acetonitrile", "value": "sparingly soluble"}, {"measurement": "solubility (in words)", "setting": "[3]; methanol at 50° C.", "value": "freely soluble"}, {"measurement": "solubility (in words)", "setting": "[3]; methyl tert-butyl ether (MTBE), even at reflux", "value": "limited solubility"}, {"measurement": "DA-5018 Solubility Trend", "setting": "[3]; ranking of solvents, 500 mg-scale, 5 volumes of solvent, ambient temperature then incrementally heated", "value": "Acetone >> Methanol > THF > Ethanol, 1-Propanol > 2-; also recorded: Propanol> MEK > MIBK > CH3CN, EtOAc, IPAc >> MTBE >>> Water"}, {"measurement": "Inhibition (%)", "setting": "[2]; 5 mg/Kg p. o.", "value": 247.4, "unit": "%"}, {"measurement": "Nucleation Temperature (° C.)", "setting": "[4]; 2.0 g DA-5018 in 15 mL methanol/water (1:1.25, v/v), cooled at 0.2° C./min", "value": 39.1, "unit": "°C"}, {"measurement": "Nucleation Temperature (° C.)", "setting": "[4]; 2.0 g DA-5018 in 20 mL methanol/water (1:1.25, v/v)", "value": 34.6, "unit": "°C"}, {"measurement": "Nucleation Temperature (° C.)", "setting": "[4]; 2.0 g DA-5018 in 25 mL methanol/water (1:1.25, v/v)", "value": 34.5, "unit": "°C"}, {"measurement": "Nucleation Temperature (° C.)", "setting": "[4]; 2.0 g DA-5018 in 30 mL methanol/water (1:1.25, v/v)", "value": 34.2, "unit": "°C"}]}, {"molecule": "COc1cc(CC(=O)NCCCc2ccc(C)c(C)c2)ccc1OCCN", "note": "[Form I, 2-[4-(2-aminoethoxy)-3-methoxyphenyl]-N-[3-(3,4-dimethylphenyl)propyl]acetamide]", "values": [{"measurement": "hygroscopicity (in words)", "setting": "[5]", "value": "propensity to absorb moisture"}, {"measurement": "relative humidity at which moisture is taken up", "setting": "[5]; less crystalline, or amorphous, samples", "value": "approximately 30 % RH"}, {"measurement": "conversion of form under thermal conditions (in words)", "setting": "[6]; 10 minutes of isothermal heating near melting point, 105° C.", "value": "convert to Form II"}]}, {"molecule": "COc1cc(CC(=O)NCCCc2ccc(C)c(C)c2)ccc1OCCN", "note": "[Form II, 2-[4-(2-aminoethoxy)-3-methoxyphenyl]-N-[3-(3,4-dimethylphenyl)propyl]acetamide]", "values": [{"measurement": "moisture retention upon desorption (in words)", "setting": "[5]; DVS desorption", "value": "did not retain moisture upon desorption"}, {"measurement": "hygroscopicity (in words)", "setting": "[5]", "value": "non-hygroscopic; also recorded: no appreciable hygroscopicity"}]}, {"molecule": "COc1cc(CC(=O)NCCCc2ccc(C)c(C)c2)ccc1OCCN", "note": "[Form III, 2-[4-(2-aminoethoxy)-3-methoxyphenyl]-N-[3-(3,4-dimethylphenyl)propyl]acetamide]", "values": [{"measurement": "relative humidity to which the dihydrate is stable upon desorption", "setting": "[5]; DVS desorption", "value": "≥ 30", "unit": "% RH"}]}, {"molecule": "COc1cc(CC(=O)NCCCc2ccc(C)c(C)c2)ccc1OCCN", "note": "[Form IV, 2-[4-(2-aminoethoxy)-3-methoxyphenyl]-N-[3-(3,4-dimethylphenyl)propyl]acetamide]", "values": [{"measurement": "conversion of form under thermal stress / melt (in words)", "setting": "[6]; DSC at various ramping rates, melt", "value": "conversion of Form IV to Form II"}]}, {"molecule": "CN1CC[C@]23c4c5ccc(O)c4O[C@H]2[C@@H](O)C=C[C@H]3[C@H]1C5", "note": "[Morphine]", "values": [{"measurement": "activity in the tail flick test (in words)", "setting": "[1]; mouse, in vivo", "value": "active"}, {"measurement": "Inhibition (%)", "setting": "[2]; 3 mg/Kg s. c.", "value": 391.7, "unit": "%"}]}, {"molecule": "CCCCCCCC/C=C\\CCCCCCCC(=O)NCc1ccc(OCCN)c(OC)c1", "note": "[NE-21610]", "values": [{"measurement": "Inhibition (%)", "setting": "[1]; 200 mg/Kg p. o.", "value": 50, "unit": "%"}]}, {"molecule": "COc1ccc2cc([C@H](C)C(=O)O)ccc2c1", "note": "[Naproxen]", "values": [{"measurement": "Analgesic activity (%)", "setting": "[7]", "value": 28.6, "unit": "%"}]}, {"molecule": "CN1C(C(=O)Nc2ccccn2)=C(O)c2ccccc2S1(=O)=O", "note": "[Piroxicam]", "values": [{"measurement": "Inhibition (%)", "setting": "[1]; 100 mg/Kg p. o.", "value": 0, "unit": "%"}]}]}
